Patent US8436013B2, “Compounds and methods for treatment of alpha-1 antitrypsin deficiency” (University of Florida Research Foundation, Inc., priority 2007, dated 2013)
Entries after “also recorded” stand apart in the source; their conditions may differ.

Assays:
[1] = molecular target: T1, ATZ (Homo sapiens, UniProt P01009, E366K); assay: ATZ secretion from CHO-ATZ cells, ELISA of culture supernatant; assay type: cell-based; conditions: various concentrations, supernatants at 24, 48 and 72 hours, DMSO controls
T1 construct: expressed in transfected cells; host or cells: CHO-ATZ cells
Protocol: FIG. 3. Effects of small molecule compounds on AAT secretion in cells. The CHO-ATZ cells were treated with various concentrations of NCI compounds. The culture supernatants were harvested for ELISA analysis. The data represent the means from 4-separate experiments.
Compounds listed in Table 1 were obtained from NCI/DTP. The compounds were dissolved in DMSO. As the first step, the compounds were tested in CHO-ATZ cells. Various concentrations of the compounds were added to the cells. The supernatants were harvested at time points: 24, 48, and 72 hours. The samples were then used for ELISA assay for human AAT.
(§1) Compounds were used to treat CHO-ATZ cells at various concentrations. Cell supernatant was harvested at different time points. ELISA test was performed to determine the level of ATZ in the supernatant. The cells were also harvested for Western blot analysis.

[2] = molecular target: T1, ATZ; assay: ATZ accumulation in treated cells, Western blot; assay type: cell-based; conditions: cells treated with polymer inhibitor vs controls
Protocol: FIG. 4. Polymer inhibitor (1,9-decadiene) reduces the ATZ accumulation in cells. Cells were treated with polymer inhibitor and harvested for Western blot analysis.
as §1
We then examined these two potentially effective inhibitors. The cells were treated by the inhibitors, followed by protein extraction and Western blot analysis.

[3] = molecular target: T1, ATZ; assay: Pulse-chase (35S labelling, anti-AAT immunoprecipitation) ATZ secretion in CHO cells; assay type: cell-based; conditions: CHO cells labeled with 35S, vs DMSO control
Source text: FIG. 5. Polymer inhibitor (1,9-decadiene) increases ATZ secretion. The cells were labeled with ^35S and harvested at the indicated time points. The protein extracts were immunoprecipitated using anti-AAT antibody. The immunocomplexes were then resolved in PAGE gel. The intensity of AAT bands were then quantified and calculated. FIG. 5A is the cells treated with DMSO control; FIG. 5B represents result of cells with polymer inhibitor treatment. […] A non-denaturing gel was used to analyze cell extracts from compound-treated CHO ATZ cells.

[4] = tested on: transgenic mice carrying a human ATZ transgene; assay: Serum AAT level (ELISA) in transgenic mice carrying a human ATZ transgene; assay type: in vivo; conditions: treated for two weeks
Protocol: FIG. 6. Compounds according to the invention can increase AAT secretion in transgenic animals. The animals were treated for two weeks. Serum AAT levels were determined by ELISA assay.
Two test compounds were administered to transgenic mice (four animals per group, including control) carrying a human ATZ transgene to determine whether the compounds are capable of increasing AAT secretion in a transgenic animal model. The animals were treated for two weeks. Serum AAT levels were determined by ELISA assay.

[5] = tested on: AAT-Z transgenic mice; assay: Liver histology (PASD staining, inflammation) in AAT-Z transgenic mice; assay type: in vivo; conditions: i.p. injection for 7 days, vs control
Protocol: FIG. 7. Compounds according to the invention decrease AAT accumulation and reduce inflammation in liver cells compared to control. AAT-Z transgenic mice were treated by i.p. injection of a compound or control for 7 days, followed by collection of liver tissue.
Compounds according to the invention decrease AAT accumulation and reduce inflammation in liver cells compared to control. AAT-Z transgenic mice were treated by i.p. injection of a compound or control for 7 days, followed by collection of liver tissue.

[6] = tested on: human ATZ transgenic model; conditions: cited from earlier work

T1 sequence (P01009 25-418 E366K): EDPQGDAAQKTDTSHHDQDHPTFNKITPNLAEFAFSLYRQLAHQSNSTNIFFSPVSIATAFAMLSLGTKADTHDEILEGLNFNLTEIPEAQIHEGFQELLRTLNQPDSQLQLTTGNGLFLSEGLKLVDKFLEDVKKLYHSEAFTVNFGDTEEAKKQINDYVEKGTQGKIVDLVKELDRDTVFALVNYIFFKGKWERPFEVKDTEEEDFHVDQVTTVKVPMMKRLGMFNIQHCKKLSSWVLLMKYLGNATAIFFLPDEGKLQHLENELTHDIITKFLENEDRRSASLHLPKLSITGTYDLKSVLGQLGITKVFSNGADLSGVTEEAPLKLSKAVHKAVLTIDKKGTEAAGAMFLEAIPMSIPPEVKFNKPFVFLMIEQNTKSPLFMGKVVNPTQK

Row | SMILES | ATZ secretion (ELISA of supernatant) [1] | ATZ secretion (ELISA of supernatant) ([1]; listed as NSC 102789) | ATZ accumulation in cells (Western blot) [2] | ATZ secretion (pulse-chase) [3] | AAT serum level enhancement [4] | AAT accumulation in hepatocytes (PASD staining) [5] | liver tissue inflammation [5] | ATZ secretion (ELISA of supernatant) ([1]; listed as NSC 21034) | blood levels of AAT [6]
1 | C=CCCCCCCC=C [1,9-decadiene] | effectively enhance ATZ secretion in the cells | appear to be effective for inhibition of ATZ secretion | reduced amount of ATZ; also recorded: effectively reduce the accumulation of ATZ in cells | increases the ATZ secretion in the supernatant | more than two-fold | decrease AAT accumulation in hepatocytes | reduced live tissue inflammation | – | –
2 | O=C(O)/C=C/c1cc2c(cc1[N+](=O)[O-])OCO2 [3,4-methylenedioxy-6-nitrocinnamic acid] | effectively enhance ATZ secretion in the cells | – | – | – | more than two-fold | decrease AAT accumulation in hepatocytes | reduced live tissue inflammation | appear to be effective for inhibition of ATZ secretion | –
3 | O=C(O)CCCc1ccccc1 [4-phenylbutyric acid] | – | – | – | – | – | – | – | – | can increase blood levels of AAT
